Data published in US11564928B1, “Cannabinoid receptor type 2 (CB2) modulators and uses thereof” (Teon Therapeutics, Inc., priority 2020, dated 2023).
Read-outs that look alike come from different tables or passages of the source.

Columns and labels:
[1] = target: T1, human CB2 receptor (Homo sapiens (Human), UniProt P34972); assay: CB2 receptor binding assay ([3H]CP-55,940 displacement, HEK-293 membranes)
[2] = target: human recombinant CB1R (Homo sapiens (Human), UniProt P21554); assay: CB1 receptor binding assay ([3H]CP-55,940 displacement, HEK-293 membranes); conditions: membranes of HEK-293 cells with human recombinant CB1R, [3H]CP-55,940, read-out: CB1 IC50
In short: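 Displacement of [3H]CP-55,940 was measured on human CB1R- or CB2R-transfected HEK-293 membranes after 120 min at 37 °C, in duplicate, with filtration and scintillation counting. For CB2R, incubation used Tris-HCl 50 mM, MgCl2 5 mM, CaCl2 1 mM, BSA 0.2%, pH 7.4. Ki values were derived from variable-slope IC50 fits using Cheng–Prusoff.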

[3] = target: T1, human CB2 receptor; assay: CB2 receptor cAMP assay (DiscoverX HitHunter cAMP XS+); format: cell-based; conditions: for Emax: CHO-K1, read-out: Max Stimulation %
Method: cAMP Hunter CHO-K-1 cell lines expressing human CB2 receptor (Eurofins) were expanded from freezer stocks according to standard procedures. Cells were seeded in a total volume of 20 μL into white walled, 384-well microplates and incubated at 37° C. for the appropriate time prior to testing. cAMP modulation in agonist, inverse agonist or antagonist format was determined using the DiscoverX HitHunter cAMP XS+ assay (Eurofins). For agonist determination, cells were incubated with sample in the presence of EC80 forskolin to induce response. Media was aspirated from cells and replaced with 15 μL 2:1 HBSS/10 mM Hepes: cAMP XS+Ab reagent. Intermediate dilution of sample stocks was performed to generate 4× sample in assay buffer containing 4× EC80 forskolin. 5 μL of 4× sample was added to cells and incubated at 37° C. or room temperature for 30 or 60 minutes. Final assay vehicle concentration was 1%. For inverse agonist determination, cells were preincubated with sample in the presence of EC20 forskolin. Media was aspirated from cells and replaced with 15 μL, 2:1 HBSS/10 mM Hepes: cAMP XS+Ab reagent. Intermediate dilution of sample stocks was performed to generate 4× sample in assay buffer containing 4× EC20 forskolin. 5 μL of 4× sample was added to cells and incubated at 37° C. or room temperature for 30 or 60 minutes. Final assay vehicle concentration was 1%. For antagonist determination, cells were pre-incubated with sample followed by agonist challenge at the EC80 concentration. Media was aspirated from cells and replaced with 10 μL 1:1 HBSS/Hepes: cAMP XS+Ab reagent. 5 μL of 4× compound was added to the cells and incubated at 37° C. or room temperature for 30 minutes. 5 μL of 4× EC80 agonist was added to cells and incubated at 37° C. or room temperature for 30 or 60 minutes. EC80 forksolin was included. After appropriate compound incubation, assay signal was generated through incubation with 20 μL cAMP XS+ED/CL lysis cocktail for one hour followed by incubation with 20 μL, cAMP XS+EA reagent for three hours at room temperature. Microplates were read following signal generation with a PerkinElmer Envision instrument for chemiluminescent signal detection. Compound activity was analyzed using CBIS data analysis suite (ChemInnovation, CA). For agonist mode assay, percentage activity is calculated using the following formula: % Activity=100%×(1−(mean RLU of test sample−mean RLU of MAX control)/(mean RLU of vehicle control−mean RLU of MAX control)). For inverse agonist mode assay, percentage activity is calculated using the following formula: % Inverse Agonist Activity=100%×((mean RLU of test sample−mean RLU of EC20 forskolin)/(mean RLU of forskolin positive control−mean RLU of EC20 control)). For antagonist mode assay, percentage inhibition is calculated using the following formula: % Inhibition=100%×(mean RLU of test sample−mean RLU of EC80 control)/(mean RLU of forskolin positive control−mean RLU of EC80 control). Data are analyzed and IC50 is calculated using GraphPad Prism 5 and the model “log(inhibitor) vs. response—Variable slope”.

[4] = membranes of HEK-293 cells with human recombinant CB2R, [3H]CP-55,940, class symbols, read-out: CB2 IC50
[5] = cAMP Hunter CHO-K-1 cells expressing human CB2 receptor, read-out: cAMP IC50
[6] = membranes of HEK-293 cells with human recombinant CB2R, [3H]CP-55,940, read-out: CB2 IC50

Chain of human recombinant CB1R (P21554 whole entry): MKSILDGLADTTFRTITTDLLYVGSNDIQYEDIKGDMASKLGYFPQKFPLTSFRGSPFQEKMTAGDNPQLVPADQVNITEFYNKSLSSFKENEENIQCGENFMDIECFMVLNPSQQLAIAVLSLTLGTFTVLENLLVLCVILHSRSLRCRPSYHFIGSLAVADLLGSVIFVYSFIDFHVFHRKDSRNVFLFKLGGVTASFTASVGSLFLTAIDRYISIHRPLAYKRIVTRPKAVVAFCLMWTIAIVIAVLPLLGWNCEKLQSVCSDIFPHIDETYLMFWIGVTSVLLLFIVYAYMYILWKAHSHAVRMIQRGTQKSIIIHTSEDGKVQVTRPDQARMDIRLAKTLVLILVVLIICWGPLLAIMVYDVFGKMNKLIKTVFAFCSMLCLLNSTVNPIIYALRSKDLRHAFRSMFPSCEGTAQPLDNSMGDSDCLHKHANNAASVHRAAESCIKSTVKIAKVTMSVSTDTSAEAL
T1 sequence (P34972 whole entry): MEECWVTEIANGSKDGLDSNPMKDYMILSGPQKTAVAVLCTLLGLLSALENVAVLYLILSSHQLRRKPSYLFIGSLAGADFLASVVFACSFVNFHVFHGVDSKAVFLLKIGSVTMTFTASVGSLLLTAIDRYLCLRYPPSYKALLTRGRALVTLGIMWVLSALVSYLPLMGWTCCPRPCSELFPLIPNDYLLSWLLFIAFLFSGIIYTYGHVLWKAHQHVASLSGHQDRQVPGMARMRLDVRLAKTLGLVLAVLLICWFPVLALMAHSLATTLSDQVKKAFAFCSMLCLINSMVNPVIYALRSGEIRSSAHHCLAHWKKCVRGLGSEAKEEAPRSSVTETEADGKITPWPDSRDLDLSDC

Row | SMILES | IC50 [1, 4] [nM] | IC50 ([2]; class symbols) [nM] | IC50 [3, 5] [nM] | IC50 [1, 6] [nM] | IC50 [2] [nM] | IC50 [3] [nM] | Emax [3] [%] | IC50 [1] [nM]
1 | O=C(NC1CCC(F)(F)CC1)c1c(O)c2cc(-c3ccc(F)cc3)cnc2n(CCN2CCOCC2)c1=O [Compound 7, N-(4,4-difluorocyclohexyl)-6-(4-fluorophenyl)-4-hydroxy-1-(2-morpholinoethyl)-2-oxo-1,2-dihydro-1,8-naphthyridine-3-carboxamide] | > 1000 | > 1000 | > 1000 |  |  |  |  | 
2 | O=C(NC12CC(C1)C2)c1c(O)c2cc(-c3ccc(F)cc3)cnc2n(CCN2CCOCC2)c1=O [Compound 8, N-(bicyclo[1.1.1]pentan-1-yl)-6-(4-fluorophenyl)-4-hydroxy-1-(2-morpholinoethyl)-2-oxo-1,2-dihydro-1,8-naphthyridine-3-carboxamide] |  |  |  | 20 | > 10000 | 40 | 32 | 
3 | CC(NC(=O)c1c(O)c2cc(-c3ccc(F)cc3)cnc2n(CCN2CCOCC2)c1=O)c1ccc(F)cc1 (stereo not drawn) [Compound 9, 6-(4-fluorophenyl)-N-(1-(4-fluorophenyl)ethyl)-4-hydroxy-1-(2-morpholinoethyl)-2-oxo-1,2-dihydro-1,8-naphthyridine-3-carboxamide] | < 100 | > 1000 |  |  |  | 71 | 7 | 
4 | COc1ccc(-c2cnc3c(c2)c(O)c(C(=O)NC2CC4(CCC4)C2)c(=O)n3CCN2CCOCC2)cc1 [Compound 10, 4-hydroxy-6-(4-methoxyphenyl)-1-(2-morpholinoethyl)-2-oxo-N-(spiro[3.3]heptan-2-yl)-1,2-dihydro-1,8-naphthyridine-3-carboxamide] |  |  |  | 7 | > 10000 | 7 | 82 | 
5 | O=C(NC1CC2(CCC2)C1)c1c(O)c2cc(-c3ccc(Cl)cc3)cnc2n(CCN2CCOCC2)c1=O [Compound 11, 6-(4-chlorophenyl)-4-hydroxy-1-(2-morpholinoethyl)-2-oxo-N-(spiro[3.3]heptan-2-yl)-1,2-dihydro-1,8-naphthyridine-3-carboxamide] |  | > 1000 |  |  |  | 81 | 60 | 100 to 999
6 | COc1ccc(-c2cnc3c(c2)c(O)c(C(=O)NC24CC(C2)C4)c(=O)n3CCN2CCOCC2)cc1 [Compound 13, N-(bicyclo[1.1.1]pentan-1-yl)-4-hydroxy-6-(4-methoxyphenyl)-1-(2-morpholinoethyl)-2-oxo-1,2-dihydro-1,8-naphthyridine-3-carboxamide] |  |  |  | 17 | > 10000 | 62 | 67 | 
7 | CC1CCC(NC(=O)c2c(O)c3cc(-c4ccc(OC(F)F)cc4)cnc3n(CCN3CCOCC3)c2=O)CC1 (stereo not drawn) [Compound 15, 6-(4-(difluoromethoxy)phenyl)-4-hydroxy-N-(4-methylcyclohexyl)-1-(2-morpholinoethyl)-2-oxo-1,2-dihydro-1,8-naphthyridine-3-carboxamide] |  |  |  | 8.8 | > 10000 | 21 | 75 | 
8 | CC1CCC(NC(=O)c2c(O)c3cc(-c4ccc5c(c4)OCCO5)cnc3n(CCN3CCOCC3)c2=O)CC1 (stereo not drawn) [Compound 19, 6-(2,3-dihydrobenzo[b][1,4]dioxin-6-yl)-4-hydroxy-N-(4-methylcyclohexyl)-1-(2-morpholinoethyl)-2-oxo-1,2-dihydro-1,8-naphthyridine-3-carboxamide] |  |  |  | 20 | > 10000 | 43 | 81 | 
9 | COc1ccc(-c2cnc3c(c2)c(O)c(C(=O)NC2CCC(C)CC2)c(=O)n3CCN2CCOCC2)cc1 (stereo not drawn) [Compound 20, 4-hydroxy-6-(4-methoxyphenyl)-N-(4-methylcyclohexyl)-1-(2-morpholinoethyl)-2-oxo-1,2-dihydro-1,8-naphthyridine-3-carboxamide] |  |  |  | 4.7 | > 10000 | 7 | 93 | 
10 | COc1ccc(-c2cnc3c(c2)cc(C(=O)NC2CC4(CCC4)C2)c(=O)n3CCN2CCOCC2)cc1 [Compound 29, 6-(4-methoxyphenyl)-1-(2-morpholinoethyl)-2-oxo-N-(spiro[3.3]heptan-2-yl)-1,2-dihydro-1,8-naphthyridine-3-carboxamide] |  |  |  | 1.2 | > 10000 | 5 | 107 | 
11 | COc1ccc(-c2cnc3c(c2)cc(C(=O)NC(C)c2ccc(F)cc2)c(=O)n3CCN2CCOCC2)cc1 (stereo not drawn) [Compound 30, N-(1-(4-fluorophenyl)ethyl)-6-(4-methoxyphenyl)-1-(2-morpholinoethyl)-2-oxo-1,2-dihydro-1,8-naphthyridine-3-carboxamide] |  |  |  | 1.2 | > 10000 | 17 | 89 | 
12 | COc1ccc(-c2cnc3c(c2)cc(C(=O)NC2CC4(COC4)C2)c(=O)n3CCN2CCOCC2)cc1 [Compound 31, 6-(4-methoxyphenyl)-1-(2-morpholinoethyl)-2-oxo-N-(2-oxaspiro[3.3]heptan-6-yl)-1,2-dihydro-1,8-naphthyridine-3-carboxamide] | < 100 | > 1000 | 127 |  |  |  | 78 | 
13 | O=C(NC1CC2(CCC2)C1)c1cc2cc(-c3ccc4c(c3)OCCO4)cnc2n(CCN2CCOCC2)c1=O [Compound 33, 6-(2,3-dihydrobenzo[b][1,4]dioxin-6-yl)-1-(2-morpholinoethyl)-2-oxo-N-(spiro[3.3]heptan-2-yl)-1,2-dihydro-1,8-naphthyridine-3-carboxamide] |  |  |  | 4 | > 10000 | 6 |  | 
14 | N#Cc1ccc(-c2cnc3c(c2)cc(C(=O)NC2CC4(CCC4)C2)c(=O)n3CCN2CCOCC2)nc1 [Compound 36, 6-(5-cyanopyridin-2-yl)-1-(2-morpholinoethyl)-2-oxo-N-(spiro[3.3]heptan-2-yl)-1,2-dihydro-1,8-naphthyridine-3-carboxamide] |  |  |  | 5 | > 10000 | 13 | 89 | 
15 | CC(C)(NC(=O)c1cc2cc(-c3ccc(C#N)cn3)cnc2n(CCN2CCOCC2)c1=O)c1ccc(F)cc1 [Compound 40, 6-(5-cyanopyridin-2-yl)-N-(2-(4-fluorophenyl)propan-2-yl)-1-(2-morpholinoethyl)-2-oxo-1,2-dihydro-1,8-naphthyridine-3-carboxamide] |  |  |  | 7 | > 10000 | 10 | 74 | 
16 | N#Cc1ccc(-c2cnc3c(c2)cc(C(=O)NC2(c4ccc(F)cc4)CC2)c(=O)n3CCN2CCOCC2)nc1 [Compound 42, 6-(5-cyanopyridin-2-yl)-N-(1-(4-fluorophenyl)cyclopropyl)-1-(2-morpholinoethyl)-2-oxo-1,2-dihydro-1,8-naphthyridine-3-carboxamide] |  |  |  | 23 | > 10000 | 14 | 73 | 
17 | N#Cc1ccc(-c2cnc3c(c2)cc(C(=O)NC2CC4(CCC4)C2)c(=O)n3CCN2CCOCC2)cc1 [Compound 44, 6-(4-cyanophenyl)-1-(2-morpholinoethyl)-2-oxo-N-(spiro[3.3]heptan-2-yl)-1,2-dihydro-1,8-naphthyridine-3-carboxamide] |  |  | > 1000 | 7.2 | 6080 |  |  | 
18 | CC(NC(=O)c1cc2cc(-c3ccc(C#N)cc3)cnc2n(CCN2CCOCC2)c1=O)c1ccc(F)cc1 (stereo not drawn) [Compound 45, 6-(4-cyanophenyl)-N-(1-(4-fluorophenyl)ethyl)-1-(2-morpholinoethyl)-2-oxo-1,2-dihydro-1,8-naphthyridine-3-carboxamide] | < 100 | > 1000 |  |  |  | 15 | 70 | 
